Source: patent publication US20210386367A1, “DEVICES AND SYSTEMS FOR GASTROINTESTINAL MICROBIOME DETECTION AND MANIPULATION” (Progenity, Inc., priority 2018, published 2021)
In brackets after ≈: the same amount, converted by molar mass. Read-outs that look alike come from different tables or passages of the source.

What was measured:
[1] = tested on: Bacteroides non fragilis clinical isolates; assay: MIC distribution against clinical isolates; type: cell-based; details: 29 Bacteroides non-fragilis isolates
[2] = tested on: Prevotella spp. clinical isolates; assay: MIC distribution against clinical isolates; type: cell-based
S. pneumoniae ATCC 49619 = assay: Time-kill assay; type: cell-based, Streptococcus pneumoniae; details: 2×, 4×, 8× MIC; 2, 6, 24 hr
B. ovatus MMX 3503 = assay: Broth microdilution MIC (time-kill study); type: cell-based, Bacteroides ovatus
S. pyogenes = assay: Spontaneous mutation frequency and mutation prevention concentration (MPC); type: cell-based; details: S. pyogenes ATCC 49399; mutant prevention concentration
Text: (§1) As used herein, “spontaneous mutation frequency” refers to the rate at which mutations arise in a bacterium that can lead to resistance to develop to an antimicrobial agent. “Mutation prevention concentration” or “MPC” refers to the lowest concentration of antimicrobial agent above which the selective proliferation of resistant mutants is expected to occur only rarely.

S. pneumonia = assay: as above; type: cell-based; details: S. pneumoniae ATCC 49619
Text: as §1

B. vulgatus = assay: as above; type: cell-based; details: B. vulgatus ATCC 8482
Text: as §1

Escherichia coli = assay: as above; type: cell-based; details: for MPC: mutant prevention concentration
Text: as §1

S. agalactiae = assay: as above; type: cell-based; details: S. agalactiae ATCC 13813
Text: as §1

B. vulgatus ATCC 8482 = assay: Broth microdilution MIC (time-kill study); type: cell-based, Bacteroides vulgatus
[3] = tested on: Streptococcus spp. (S. pneumoniae ATCC 49619, S. pyogenes ATCC 49399, S. agalactiae ATCC 13813); assay: Agar dilution MIC (spontaneous mutation study; strain in conditions); type: cell-based
[4] = tested on: E. coli (ATCC 25922, ATCC 35218, MMX 1312); assay: as above; type: cell-based, Escherichia coli; details: Escherichia coli
S. agalactiae ATCC 13813 = assay: Time-kill assay; type: cell-based, Streptococcus agalactiae; details: 2×, 4×, 8× MIC; 2, 6, 24 hr
[5] = MIC 0.5 μg/mL, 30 Prevotella spp. isolates
[6] = MIC 4 μg/mL, 30 Prevotella spp. isolates
[7] = MIC 8 μg/mL, 30 Prevotella spp. isolates
[8] = MIC 16 μg/mL, 30 Prevotella spp. isolates
[9] = MIC 32 μg/mL, 30 Prevotella spp. isolates
[10] = MIC 64 μg/mL, 30 Prevotella spp. isolates
[11] = ceftriaxone selection 8X MIC, 0.5 μg/mL
[12] = mutant prevention concentration
[13] = ceftriaxone selection 4X MIC, 16 μg/mL
[14] = ceftriaxone selection 8X MIC, 32 μg/mL
[15] = E. coli ATCC 25922, ceftriaxone selection 8X MIC, 0.5 μg/mL
[16] = E. coli MMX 1312, ceftriaxone selection 4X MIC, 16 μg/mL
[17] = E. coli MMX 1312, ceftriaxone selection 8X MIC, 32 μg/mL

CO/N=C(\C(=O)N[C@@H]1C(=O)N2C(C(=O)O)=C(CSc3nc(=O)c(=O)[nH]n3C)CS[C@H]12)c1csc(N)n1 [ceftriaxone]
Cumulative percentage of isolates inhibited at MIC ([1]; MIC 1 μg/mL): 3.4% | Number of test isolates at MIC ([1]; MIC 1 μg/mL): 1 | Cumulative percentage of isolates inhibited at MIC ([1]; MIC 2 μg/mL): 6.9% | Number of test isolates at MIC ([1]; MIC 2 μg/mL): 1 | Cumulative percentage of isolates inhibited at MIC ([1]; MIC 4 μg/mL): 13.8% | Number of test isolates at MIC ([1]; MIC 4 μg/mL): 2 | Cumulative percentage of isolates inhibited at MIC ([1]; MIC 16 μg/mL): 24.1% | Number of test isolates at MIC ([1]; MIC 16 μg/mL): 3 | Cumulative percentage of isolates inhibited at MIC ([1]; MIC 32 μg/mL): 27.6% | Number of test isolates at MIC ([1]; MIC 32 μg/mL): 1 | Cumulative percentage of isolates inhibited at MIC ([1]; MIC 64 μg/mL): 34.5% | Number of test isolates at MIC ([1]; MIC 64 μg/mL): 2 | Cumulative percentage of isolates inhibited at MIC [2]: 100.0% | Number of test isolates at MIC [2]: 3 | Cumulative percentage of isolates inhibited at MIC [2, 5]: 20.0% | Number of test isolates at MIC [2, 5]: 1 | Cumulative percentage of isolates inhibited at MIC [2, 6]: 33.3% | Number of test isolates at MIC [2, 6]: 4 | Cumulative percentage of isolates inhibited at MIC [2, 7]: 36.7% | Number of test isolates at MIC [2, 7]: 1 | Cumulative percentage of isolates inhibited at MIC [2, 8]: 46.7% | Number of test isolates at MIC [2, 8]: 3 | Cumulative percentage of isolates inhibited at MIC [2, 9]: 66.7% | Number of test isolates at MIC [2, 9]: 6 | Cumulative percentage of isolates inhibited at MIC [2, 10]: 90.0% | Number of test isolates at MIC [2, 10]: 7 | time-kill kinetics outcome (bactericidal = ≥3 log reduction in CFU per mL) (S. pneumoniae ATCC 49619): all three drug concentrations tested demonstrated bactericidal effects at 24 hr | MIC (B. ovatus MMX 3503; Bacteroides ovatus, MMX3503, B. ovatus MMX 3504 (so in the source)): > 128 µg/mL | MIC (B. ovatus MMX 3503; Bacteroides ovatus, MMX3503, broth microdilution): > 128 µg/mL | MIC (B. ovatus MMX 3503; broth microdilution): 128 µg/mL (≈ 231 µM) | MPC (S. pyogenes): 0.12 µg/mL | Average Count (S. pneumonia; [11]): 0 CFU | Count 1 (S. pneumonia; [11]): 0 CFU | Count 2 (S. pneumonia; [11]): 0 CFU | Spontaneous Mutation Frequency (S. pneumonia; [11]): ≤9.52 × 10^−10 | MPC (S. pneumonia; [12]): 0.25 µg/mL | Average Count (B. vulgatus; [13]): TNTC | Count 1 (B. vulgatus; [13]): TNTC | Count 2 (B. vulgatus; [13]): TNTC | Spontaneous Mutation Frequency (B. vulgatus; ceftriaxone selection 4X MIC, 16 μg/mL, based on estimated count of >500 average CFU): >8.69 × 10^−8 | Average Count (B. vulgatus; [14]): 0 CFU | Count 1 (B. vulgatus; [14]): 0 CFU | Count 2 (B. vulgatus; [14]): 0 CFU | Spontaneous Mutation Frequency (B. vulgatus; [14]): ≤1.74 × 10^−10 | MPC (B. vulgatus; [12]): 32 µg/mL | Average Count (Escherichia coli; [15]): 0 CFU | Count 1 (Escherichia coli; [15]): 0 CFU | Count 2 (Escherichia coli; [15]): 0 CFU | Spontaneous Mutation Frequency (Escherichia coli; [15]): ≤7.41 × 10^−9 | MPC (Escherichia coli; E. coli ATCC 25922): 0.25 µg/mL | MPC (Escherichia coli; E. coli ATCC 35218): 0.12 µg/mL | Average Count (Escherichia coli; [16]): TNTC | Count 1 (Escherichia coli; [16]): TNTC | Count 2 (Escherichia coli; [16]): TNTC | Average Count (Escherichia coli; [17]): TNTC | Count 1 (Escherichia coli; [17]): TNTC | Count 2 (Escherichia coli; [17]): TNTC | Average Count (S. agalactiae; [11]): 0 CFU | Count 1 (S. agalactiae; [11]): 0 CFU | Count 2 (S. agalactiae; [11]): 0 CFU | Spontaneous Mutation Frequency (S. agalactiae; [11]): ≤1.73 × 10^−10 | MPC (S. agalactiae; [12]): 0.12 µg/mL | MIC (B. vulgatus ATCC 8482; B. vulgatus ATCC 8482): 2 µg/mL (≈ 3.61 µM) | MIC (B. vulgatus ATCC 8482; Phocaeicola vulgatus, ATCC8482, broth microdilution, read-out: MIC): 2 µg/mL (≈ 3.61 µM) | MIC ([3]; Streptococcus agalactiae, S. agalactiae ATCC 13813, read-out: Agar MIC): 0.06 µg/mL (≈ 0.108 µM) | MIC ([3]; Streptococcus pneumoniae, S. pneumoniae ATCC 49619, read-out: Agar MIC): 0.06 µg/mL (≈ 0.108 µM) | MIC ([3]; Streptococcus pyogenes, S. pyogenes ATCC 49399, read-out: Agar MIC): 0.03 µg/mL (≈ 0.0541 µM) | MIC ([3]; over evaluated Streptococcus spp. (range stated jointly with other groups), read-out: MIC values (agar dilution)): 0.03 to 0.06 µg/mL (≈ 0.0541 to 0.108 µM) | MIC ([4]; read-out: Agar MIC, E. coli ATCC 25922): 0.06 µg/mL (≈ 0.108 µM) | MIC ([4]; read-out: Agar MIC, E. coli ATCC 35218): 0.03 µg/mL (≈ 0.0541 µM) | MIC ([4]; read-out: Agar MIC, E. coli MMX 1312): 4 µg/mL (≈ 7.21 µM) | MIC ([4]; read-out: MIC value (agar dilution), E. coli MMX 1312): 4 µg/mL (≈ 7.21 µM) | MIC ([4]; read-out: MIC values (agar dilution), E. coli excluding E. coli MMX 1312 (stated jointly with Streptococcus spp.)): 0.03 to 0.06 µg/mL (≈ 0.0541 to 0.108 µM) | time-kill kinetics outcome (bactericidal = ≥3 log reduction in CFU per mL) (S. agalactiae ATCC 13813): bactericidal effect at 24 hr at 8×MIC, as did ceftriaxone (6 and 24 hr)
